Source: ChEMBL document CHEMBL3885881, “DrugMatrix”

Species on record: Rattus norvegicus
Assay: DrugMatrix - Regimen: Daily Repeat
Format: toxicity, organism-based, Sprague-Dawley
Set-up: regimen Daily Repeat, gender Male, age 6-8 weeks
Details: in vivo, po, route oral GAVAGE, vehicle .5 % CMC; for ABSOLUTE BASOPHIL / ABSOLUTE EOSINOPHIL / ABSOLUTE MONOCYTE / ABSOLUTE SEGMENTED NEUTROPHIL / BASOPHIL / EOSINOPHIL / ERYTHROCYTE COUNT / HEMATOCRIT / HEMOGLOBIN / LEUKOCYTE COUNT / LYMPHOCYTE / MEAN CORPUSCULAR HEMOGLOBIN / MEAN CORPUSCULAR HEMOGLOBIN CONCENTRATION / MEAN CORPUSCULAR VOLUME / MONOCYTE / NEUTROPHIL / NUCLEATED RED BLOOD CELLS / PLATELET COUNT: tissue Blood; for ALANINE AMINOTRANSFERASE / ALBUMIN / ALKALINE PHOSPHATASE / ASPARTATE AMINOTRANSFERASE / BLOOD UREA NITROGEN / CARBON DIOXIDE / CHLORIDE / CHOLESTEROL / CREATINE PHOSPHOKINASE / CREATININE / GLUCOSE / LACTATE DEHYDROGENASE / LIPASE / PHOSPHORUS / POTASSIUM / SODIUM / TOTAL BILIRUBIN / TOTAL PROTEIN / URIC ACID: tissue Plasma
[1] = 0 mg/kg, 72 h, dose level Control, time 3 day
[2] = 0 mg/kg, 120 h, dose level Control, time 5 day
[3] = […], 72 h, dose 6.5 mg/Kg, dose level Low, time 3 day
[4] = […], 120 h, dose 6.5 mg/Kg, dose level Low, time 5 day

Structure (SMILES): CN(C)CCOC(c1ccccc1)c1ccccc1.Cn1c(=O)c2[nH]c(Cl)nc2n(C)c1=O [DIMENHYDRINATE]
- ABSOLUTE BASOPHIL [1]: 0 CELLS/uL
- ABSOLUTE EOSINOPHIL [1]: 32.5 CELLS/uL
- ABSOLUTE MONOCYTE [1]: 474 CELLS/uL
- ABSOLUTE SEGMENTED NEUTROPHIL [1]: 1932.67 CELLS/uL
- BASOPHIL [1]: 0%
- EOSINOPHIL [1]: 0.17%
- ERYTHROCYTE COUNT [1]: 5.45 x10E6/uL
- HEMATOCRIT [1]: 34.32%
- HEMOGLOBIN [1]: 13.82 G/DL
- LEUKOCYTE COUNT [1]: 15.93 x10E3/uL
- LYMPHOCYTE [1]: 84.83%
- MEAN CORPUSCULAR HEMOGLOBIN [1]: 25.38 pg
- MEAN CORPUSCULAR HEMOGLOBIN CONCENTRATION [1]: 40.27 G/DL
- MEAN CORPUSCULAR VOLUME [1]: 63.05 fL
- MONOCYTE [1]: 3%
- NEUTROPHIL [1]: 12%
- NUCLEATED RED BLOOD CELLS [1]: 0.67 /100WBC
- PLATELET COUNT [1]: 1188.5 x10E3/uL
- ALANINE AMINOTRANSFERASE [1]: 54.83 u/L
- ALBUMIN [1]: 4.22 G/DL
- ALKALINE PHOSPHATASE [1]: 427.67 u/L
- ASPARTATE AMINOTRANSFERASE [1]: 86.5 u/L
- BLOOD UREA NITROGEN [1]: 15.33 mg/dL
- CARBON DIOXIDE [1]: 24.83 mmol/L
- CHLORIDE [1]: 102.33 MEQ/L
- CHOLESTEROL [1]: 71.67 mg/dL
- CREATINE PHOSPHOKINASE [1]: 442.5 u/L
- CREATININE [1]: 0.19 mg/dL
- GLUCOSE [1]: 160.67 mg/dL
- LACTATE DEHYDROGENASE [1]: 236.5 u/L
- LIPASE [1]: 9 u/L
- PHOSPHORUS [1]: 11.97 mg/dL
- POTASSIUM [1]: 6.2 MEQ/L
- SODIUM [1]: 142.85 MEQ/L
- TOTAL BILIRUBIN [1]: 0.2 mg/dL
- TOTAL PROTEIN [1]: 5.8 G/DL
- URIC ACID [1]: 1.3 mg/dL
- ABSOLUTE BASOPHIL [2]: 0 CELLS/uL
- ABSOLUTE EOSINOPHIL [2]: 114.5 CELLS/uL
- ABSOLUTE MONOCYTE [2]: 173 CELLS/uL
- ABSOLUTE SEGMENTED NEUTROPHIL [2]: 1048.5 CELLS/uL
- BASOPHIL [2]: 0%
- EOSINOPHIL [2]: 0.67%
- ERYTHROCYTE COUNT [2]: 5.66 x10E6/uL
- HEMATOCRIT [2]: 35.52%
- HEMOGLOBIN [2]: 14.27 G/DL
- LEUKOCYTE COUNT [2]: 15.95 x10E3/uL
- LYMPHOCYTE [2]: 91.33%
- MEAN CORPUSCULAR HEMOGLOBIN [2]: 25.23 pg
- MEAN CORPUSCULAR HEMOGLOBIN CONCENTRATION [2]: 40.2 G/DL
- MEAN CORPUSCULAR VOLUME [2]: 62.7 fL
- MONOCYTE [2]: 1.17%
- NEUTROPHIL [2]: 6.83%
- NUCLEATED RED BLOOD CELLS [2]: 0.33 /100WBC
- PLATELET COUNT [2]: 1229 x10E3/uL
- ALANINE AMINOTRANSFERASE [2]: 58.67 u/L
- ALBUMIN [2]: 4.32 G/DL
- ALKALINE PHOSPHATASE [2]: 382.5 u/L
- ASPARTATE AMINOTRANSFERASE [2]: 81.67 u/L
- BLOOD UREA NITROGEN [2]: 17.67 mg/dL
- CARBON DIOXIDE [2]: 27.17 mmol/L
- CHLORIDE [2]: 102.33 MEQ/L
- CHOLESTEROL [2]: 63.67 mg/dL
- CREATINE PHOSPHOKINASE [2]: 227.67 u/L
- CREATININE [2]: 0.23 mg/dL
- GLUCOSE [2]: 155.33 mg/dL
- LACTATE DEHYDROGENASE [2]: 146.5 u/L
- LIPASE [2]: 10.67 u/L
- PHOSPHORUS [2]: 11.93 mg/dL
- POTASSIUM [2]: 6.85 MEQ/L
- SODIUM [2]: 143.95 MEQ/L
- TOTAL BILIRUBIN [2]: 0.18 mg/dL
- TOTAL PROTEIN [2]: 6.02 G/DL
- URIC ACID [2]: 1.63 mg/dL
- ABSOLUTE BASOPHIL [3]: 0 CELLS/uL
- ABSOLUTE EOSINOPHIL [3]: 46.67 CELLS/uL
- ABSOLUTE MONOCYTE [3]: 474 CELLS/uL
- ABSOLUTE SEGMENTED NEUTROPHIL [3]: 1911.67 CELLS/uL
- BASOPHIL [3]: 0%
- EOSINOPHIL [3]: 0.33%
- ERYTHROCYTE COUNT [3]: 5.67 x10E6/uL
- HEMATOCRIT [3]: 35.5%
- HEMOGLOBIN [3]: 13.93 G/DL
- LEUKOCYTE COUNT [3]: 14.93 x10E3/uL
- LYMPHOCYTE [3]: 84%
- MEAN CORPUSCULAR HEMOGLOBIN [3]: 24.57 pg
- MEAN CORPUSCULAR HEMOGLOBIN CONCENTRATION [3]: 39.27 G/DL
- MEAN CORPUSCULAR VOLUME [3]: 62.6 fL
- MONOCYTE [3]: 3%
- NEUTROPHIL [3]: 12.67%
- NUCLEATED RED BLOOD CELLS [3]: 0 /100WBC
- PLATELET COUNT [3]: 1199.33 x10E3/uL
- ALANINE AMINOTRANSFERASE [3]: 47.67 u/L
- ALBUMIN [3]: 4.03 G/DL
- ALKALINE PHOSPHATASE [3]: 343 u/L
- ASPARTATE AMINOTRANSFERASE [3]: 87 u/L
- BLOOD UREA NITROGEN [3]: 15 mg/dL
- CARBON DIOXIDE [3]: 25.67 mmol/L
- CHLORIDE [3]: 102 MEQ/L
- CHOLESTEROL [3]: 75.33 mg/dL
- CREATINE PHOSPHOKINASE [3]: 266 u/L
- CREATININE [3]: 0.14 mg/dL
- GLUCOSE [3]: 167.33 mg/dL
- LACTATE DEHYDROGENASE [3]: 166 u/L
- LIPASE [3]: 9.33 u/L
- PHOSPHORUS [3]: 12.2 mg/dL
- POTASSIUM [3]: 6.53 MEQ/L
- SODIUM [3]: 144.67 MEQ/L
- TOTAL BILIRUBIN [3]: 0.2 mg/dL
- TOTAL PROTEIN [3]: 5.6 G/DL
- URIC ACID [3]: 1.57 mg/dL
- ABSOLUTE BASOPHIL [4]: 0 CELLS/uL
- ABSOLUTE EOSINOPHIL [4]: 108.67 CELLS/uL
- ABSOLUTE MONOCYTE [4]: 85.67 CELLS/uL
- ABSOLUTE SEGMENTED NEUTROPHIL [4]: 1586.67 CELLS/uL
- BASOPHIL [4]: 0%
- EOSINOPHIL [4]: 0.67%
- ERYTHROCYTE COUNT [4]: 5.47 x10E6/uL
- HEMATOCRIT [4]: 34.93%
- HEMOGLOBIN [4]: 14.13 G/DL
- LEUKOCYTE COUNT [4]: 19.43 x10E3/uL
- LYMPHOCYTE [4]: 91.67%
- MEAN CORPUSCULAR HEMOGLOBIN [4]: 25.8 pg
- MEAN CORPUSCULAR HEMOGLOBIN CONCENTRATION [4]: 40.47 G/DL
- MEAN CORPUSCULAR VOLUME [4]: 63.8 fL
- MONOCYTE [4]: 0.33%
- NEUTROPHIL [4]: 7.33%
- NUCLEATED RED BLOOD CELLS [4]: 0 /100WBC
- PLATELET COUNT [4]: 1543 x10E3/uL
- ALANINE AMINOTRANSFERASE [4]: 48.67 u/L
- ALBUMIN [4]: 4.17 G/DL
- ALKALINE PHOSPHATASE [4]: 266.33 u/L
- ASPARTATE AMINOTRANSFERASE [4]: 77.33 u/L
- BLOOD UREA NITROGEN [4]: 18.67 mg/dL
- CARBON DIOXIDE [4]: 25 mmol/L
- CHLORIDE [4]: 96 MEQ/L
- CHOLESTEROL [4]: 71.33 mg/dL
- CREATINE PHOSPHOKINASE [4]: 225.67 u/L
- CREATININE [4]: 0.2 mg/dL
- GLUCOSE [4]: 159 mg/dL
- LACTATE DEHYDROGENASE [4]: 96.67 u/L
- LIPASE [4]: 10 u/L
- PHOSPHORUS [4]: 13.07 mg/dL
- POTASSIUM [4]: 6.62 MEQ/L
- SODIUM [4]: 135.4 MEQ/L
- TOTAL BILIRUBIN [4]: 0.13 mg/dL
- TOTAL PROTEIN [4]: 5.8 G/DL
- URIC ACID [4]: 2.27 mg/dL
